ChEMBL document CHEMBL3769361, “Novel squaramides with in vitro liver stage antiplasmodial activity” (Bioorg Med Chem, 2016)

Tests used:
Plasmodium berghei [1] = assay: Potency index, ratio of bulaquine IC50 to compound IC50 for liver stage Plasmodium berghei infected in Huh7 cells; format: functional, Huh-7
Plasmodium berghei [2] = assay: Antiplasmodial activity against liver stage Plasmodium berghei infected in Huh7 cells assessed as inhibition of parasite infection incubated for 1 hr prior to infection measured at 24 hrs by luciferase reporter gene assay; format: functional, organism-based; conditions: Huh-7, Liver
[3] = Cytotoxicity against HEK293T cells assessed as cell viability after 48 hrs by MTT assay; format: cell-based; conditions: Homo sapiens, HEK-293T
[4] = Cytotoxicity against human HuH7 cells infected with Plasmodium berghei assessed as cell proliferation at 1 to 10 uM by Alamar blue assay; format: cell-based; conditions: huh-7, 10 µM
Plasmodium falciparum [5] = assay: Antiplasmodial activity against chloroquine-resistant Plasmodium falciparum W2 infected in human erythrocytes after 48 hrs by flow cytometry; format: functional, organism-based; conditions: W2, 48 h
Plasmodium falciparum [6] = assay: Antiplasmodial activity against chloroquine-resistant Plasmodium falciparum W2 infected in human erythrocytes after 24 hrs by [3H]-hypoxanthine incorporation assay; format: functional, organism-based

| Compound | Ratio IC50 (Plasmodium berghei [1]) | IC50 (Plasmodium berghei [2]) | IC50 [3] | Activity [4] | IC50 (Plasmodium falciparum [5]) | IC50 (Plasmodium falciparum [6]) |
| --- | --- | --- | --- | --- | --- | --- |
| CCCCOc1c(NCCCC(C)Nc2cc(OC)cc3cccnc23)c(=O)c1=O (configuration not stated) | 4.3 | 1.3 µM | – | – | – | – |
| CCCCOc1c(NCCNc2cc(OC)cc3cccnc23)c(=O)c1=O | – | – | > 100 µM | Non-toxic | 8.5 µM | – |
| CCCCOc1c(NCCCNc2cc(OC)cc3cccnc23)c(=O)c1=O | 4.3 | 1.8 µM | > 100 µM | Non-toxic | 5.1 µM | – |
| COc1cc(NC(C)CCCNc2c(OC)c(=O)c2=O)c2ncccc2c1 (configuration not stated) | – | – | – | Non-toxic | > 10 µM | – |
| CCCCOc1c(NCCCCCNc2cc(OC)cc3cccnc23)c(=O)c1=O | 4.3 | 2.2 µM | > 100 µM | Non-toxic | > 10 µM | – |
| COc1cc(NC(C)CCCN/C(C)=C2/CCOC2=O)c2ncccc2c1 (configuration not stated) | – | 10 µM | – | – | – | 1.6 µM |
| CCCCOc1c(Nc2cc(OC)cc3cccnc23)c(=O)c1=O | – | – | – | Non-toxic | > 10 µM | – |
| COc1cc(NC(C)CCCNc2c(NCCCC(C)Nc3cc(OC)cc4cccnc34)c(=O)c2=O)c2ncccc2c1 (configuration not stated) | 4.3 | 1.3 µM | – | – | – | – |
| COc1cc(NC(C)CCCN)c2ncccc2c1 (configuration not stated) [PRIMAQUINE] | – | 9.5 µM | – | – | – | – |
| CCOc1c(NCCCC(C)Nc2cc(OC)cc3cccnc23)c(=O)c1=O (configuration not stated) | – | – | > 100 µM | Non-toxic | 7.3 µM | – |
| CCCCOc1c(NCCC(C)Nc2cc(OC)cc3cccnc23)c(=O)c1=O (configuration not stated) | – | – | > 100 µM | Non-toxic | 5.1 µM | – |
| CCCCNc1c(NCCCC(C)Nc2cc(OC)cc3cccnc23)c(=O)c1=O (configuration not stated) | – | – | – | Non-toxic | > 10 µM | – |
